Data reported in publication PMC13266999, “Designing Antibiotics with Inherent Resistance to Efflux as a Strategy to Revive Discovery against Multidrug-Resistant Pathogens” (Journal of Medicinal Chemistry, 2026).
≈ marks a conversion by molar mass, not a printed value. Where “and” joins values, the source holds several entries; their conditions need not be identical. Identical values can stand only once. Like-named read-outs stand apart in the source and are kept apart here.

Columns and labels:
[1] = tested on: S. aureus; assay: Serial passaging, MIC of adapted strains; format: cell-based
Protocol: MICs were performed on the first and 10th passage.

[2] = target: T1, WT DNA gyrase (Staphylococcus aureus, UniProt P0A0K8+P20831); assay: DNA gyrase supercoiling inhibition assay; format: biochemical, S. aureus; settings: WT enzyme; read-out: IC50 (converted)
T1 construct: purchased Inspiralis Ltd. (Norwich, UK)
Protocol: (§1) Gyrase inhibition was determined through biochemical assay kits from Inspiralis Ltd. (Norwich, UK), according to manufacturer’s instructions, and as described previously. Briefly, 1U of enzyme was incubated with 0.5 μg of relaxed […] DNA in the presence of compound in 1% DMSO for 30 min at 37 °C. A control reaction contained no compound but still contained 1% DMSO. The reactions were stopped through Stop Buffer addition and the DNA separated through addition of chloroform/iso-amyl alcohol (24;1). Samples were run on a 1% agarose gel at 75 V for 2 h, which was then stained with 1 μg/mL ethidium bromide and visualized using a NuGenius gel imager (Syngene). The intensity of the supercoiled DNA band was quantified using Syngene software, and the inhibition of the supercoiling of the DNA by the compounds was calculated.

[3] = target: T2, GyrA S84L mutant DNA gyrase (Staphylococcus aureus, UniProt P0A0K8+P20831, S84L); assay: DNA gyrase supercoiling inhibition assay; format: biochemical, S. aureus; settings: S84L mutant enzyme; read-out: IC50 (converted)
T2 construct: purchased Inspiralis Ltd. (Norwich, UK)
Protocol: as §1

[4] = tested on: Pseudomonas aeruginosa; assay: MIC (microbroth dilution); format: cell-based
Protocol: (§2) All bacteria were maintained on tryptic soy agar (TSA), except Streptococcus spp., which were maintained on Columbia agar plates containing 5% horse blood. All bacterial assays were carried out in tryptic soy broth (TSB), except for Streptococcus spp. which were grown in cation-adjusted Mueller Hinton broth containing 2.5% lysed horse blood. Bacteria were grown to stationary phase in liquid culture overnight, with shaking at 200 rpm, before being back diluted to the relevant starting concentration for each assay below. MICs were measured by the microbroth dilution method. […] Absorbance at OD600 was read on a CLARIOstar spectrophotometer (BMG Labtech) and the MIC was defined as the minimum concentration of compound where no visible growth was detected. The compounds were prepared as a DMSO stock and equivalent concentrations of DMSO had no effect on bacterial growth. MICs were also performed in the presence of the outer membrane permeator, polymyxin b nonapeptide (PMBN) following the same MIC method but with the following variation. The 2-fold dilution series of compound was prepared as above, then 50 μL of PMBN at a final concentration of 30 μg/mL was added to relevant wells, while 50 μL/well of blank media was added to the remaining wells. Bacteria were then added at 50 μL/well for a starting concentration as above. Thirty μg/mL of PMBN had no effect on bacterial growth. The MICs were read and defined as above. All animal procedures were performed by the contract research organization Pharmacology Discovery Services Taiwan in accordance with the Guide for the Care and Use of Laboratory Animals. The procedures were approved by the Institutional Ethics Committee of Pharmacology Discovery Services Taiwan, Ltd. (approval no. AB127662), in compliance with animal welfare legislation in Taiwan.

[5] = tested on: Acinetobacter baumannii; assay: MIC (microbroth dilution); format: cell-based
Protocol: as §2

[6] = tested on: S. aureus NCTC 13616; assay: Time-kill assay; format: cell-based; settings: 4x MIC, 24 hours
Protocol: Time-kill assays were performed as defined previously.

[7] = Plasma protein binding (RED); format: in vitro ADME; settings: pH 7.4
Protocol: Plasma protein binding was measured using a Rapid Equilibrium Dialysis (RED) assay. Test compounds and control compounds were added to plasma at 10 μM and dialyzed against phosphate-buffered saline (PBS, pH 7.4) for 4 h at 37 °C. […] The percentage of drug bound to plasma proteins was calculated by comparing the analyte response in the plasma compartment with that in the buffer compartment.

[8] = tested on: S. epidermidis; assay: MIC (microbroth dilution); format: cell-based, Staphylococcus epidermidis; settings: SE378
Protocol: as §2, with “All bacterial assays were carried out in tryptic soy broth (TSB), except for Streptococcus spp. which were grown in cation-adjusted Mueller Hinton broth containing 2.5% lysed horse blood.” left out, “The compounds were prepared as a DMSO stock and equivalent concentrations of DMSO had no effect on bacterial growth.” left out, “Thirty μg/mL of PMBN had no effect on bacterial growth.” left out

[9] = tested on: E. faecalis; assay: MIC (microbroth dilution); format: cell-based, Enterococcus faecalis
Protocol: as §2, with “All bacterial assays were carried out in tryptic soy broth (TSB), except for Streptococcus spp. which were grown in cation-adjusted Mueller Hinton broth containing 2.5% lysed horse blood.” left out, “The compounds were prepared as a DMSO stock and equivalent concentrations of DMSO had no effect on bacterial growth.” left out, “Thirty μg/mL of PMBN had no effect on bacterial growth.” left out

[10] = tested on: K. pneumoniae; assay: MIC (microbroth dilution); format: cell-based, Klebsiella pneumoniae
Protocol: as §2, with “All bacterial assays were carried out in tryptic soy broth (TSB), except for Streptococcus spp. which were grown in cation-adjusted Mueller Hinton broth containing 2.5% lysed horse blood.” left out, “The compounds were prepared as a DMSO stock and equivalent concentrations of DMSO had no effect on bacterial growth.” left out, “Thirty μg/mL of PMBN had no effect on bacterial growth.” left out

[11] = tested on: NorA overexpressing strain NCTC 13616; assay: Reserpine growth (efflux inhibition) assay; settings: for AUC of growth curve: biological replicates 1-3, listed as ML-77-005
Protocol: Statistical analyses were performed with GraphPad Prism V9.5.0. […] Unpaired t tests were used when comparing two samples in the gyrase assays.

[12] = tested on: E. faecium; assay: MIC (microbroth dilution); format: cell-based, Enterococcus faecium
Protocol: as §2

[13] = Kinetic aqueous solubility; format: physicochemical; settings: phosphate-buffered saline with 2% DMSO, pH 7.4, aqueous buffer, kinetic from dmso stock
Protocol: Kinetic aqueous solubility was determined using a standard LC-UV/MS-based assay. Test compounds were prepared from 10 mM DMSO stock solutions and diluted to a nominal concentration of 200 μM in phosphate-buffered saline (PBS, pH 7.4) containing 2% DMSO. Parallel dilutions in DMSO were used as reference standards. Samples were equilibrated at room temperature for 2 h with shaking, then filtered, and the filtrates were analyzed by LC-UV with mass spectrometric confirmation of the analyte peak. Solubility was determined by comparing the UV peak area of the PBS filtrate with those of the DMSO reference standards. The effective range of the assay was 10–200 μM.

[14] = tested on: S. haemolyticus; assay: MIC (microbroth dilution); format: cell-based, Staphylococcus haemolyticus; settings: SH324
Protocol: as §2

## O=C(O)c1cn(C2CC2)c2cc(N3CCN(Cc4cccc5ccccc45)CC3)c(F)cc2c1=O [Compound 8, 1-Cyclopropyl-6-fluoro-7-(4-(naphthalen-1-ylmethyl)piperazin-1-yl)-4-oxo-1,4-dihydroquinoline-3-carboxylic acid]
[1]; ATCC 9144 4x (passaged with Compound 8)
  MIC: 2 µg/mL
[1]; ATCC 9144 WT
  MIC: 0.5 µg/mL
[1]; NCTC 13616 4x (passaged with Compound 8)
  MIC: 4 µg/mL
[1]; NCTC 13616 WT
  MIC: 2 µg/mL
[2]
  IC50: > 271 µM
[3]
  IC50: 94.9 µM
[4]; NCTC 13437
  MIC: 128 µg/mL (≈ 271 µM)
[4]; NCTC 13437, +PMBN
  MIC: 32 µg/mL (≈ 67.9 µM)
[4]; PAO1, + PMBN
  MIC: 0.125 µg/mL
[4]; Pseudomonas aeruginosa, PAO1, read-out: MIC
  MIC: > 128 µg/mL
[5]; ATCC 17978, +PMBN
  MIC: 0.125 µg/mL (≈ 0.265 µM)
[5]; AYE, +PMBN
  MIC: 32 µg/mL (≈ 67.9 µM)
[5]; Acinetobacter baumannii, ATCC17978, ATCC 17978, read-out: MIC
  MIC: 4 µg/mL (≈ 8.48 µM)
[5]; Acinetobacter baumannii, BAA1710, BAA-1710 (AYE), read-out: MIC
  MIC: > 128 µg/mL
[6]
  time-kill profile: comparable bacteriostatic profiles
[7]
  fraction unbound at 4 h, 10 μM: < 0.01
[8]
  MIC: 0.25 to 2 µg/mL
[9]; EF602
  MIC: 2 µg/mL (≈ 4.24 µM)
[9]; Enterococcus faecalis, NCTC775, NCTC 775, read-out: MIC
  MIC: 2 µg/mL (≈ 4.24 µM)
[9]; Enterococcus faecalis, NCTC12201, NCTC 12201, read-out: MIC
  MIC: 0.125 µg/mL (≈ 0.265 µM)
[9]; Enterococcus faecalis, NCTC12204, NCTC 12204, read-out: MIC
  MIC: 2 µg/mL (≈ 4.24 µM)
[9]; NCTC 775
  MIC: 2 µg/mL (≈ 4.24 µM)
[9]; NCTC 12201
  MIC: 0.5 µg/mL (≈ 1.06 µM)
[10]; Klebsiella pneumoniae, M6, read-out: MIC
  MIC: 32 to 64 µg/mL (≈ 67.9 to 136 µM)
[10]; Klebsiella pneumoniae, NCTC13368
  MIC: > 128 µg/mL
[10]; M6, +PMBN, in µg/mL
  MIC: 0.5
[10]; NCTC 13368, +PMBN, in µg/mL
  MIC: 1-2
[11]; 0.25 MIC + R (reserpine)
  AUC of growth curve: 3.096 and 3.206 and 1.480
[11]; 0.25 MIC
  AUC of growth curve: 3.117 and 3.088 and 3.115
[11]; 0.5 MIC + R (reserpine)
  AUC of growth curve: 3.021 and 2.572 and 0.9525
[11]; 0.5 MIC
  AUC of growth curve: 1.068 and 2.766 and 2.838
[11]; 0.5x MIC with vs without reserpine
  efflux liability in reserpine assay: not a substrate of NorA
[12]; EF205
  MIC: 2 µg/mL (≈ 4.24 µM)
[12]; NCTC 12204
  MIC: 2 µg/mL (≈ 4.24 µM)
[13]
  solubility at 2 h: < 5 µM
[14]
  MIC: 4 µg/mL (≈ 8.48 µM)
